Results on three molecules are retold here after publication PMC11219735, “Fluorescence lifetime multiplexing with fluorogen activating protein FAST variants” (Communications Biology, 2024).

Common to all, as to test: spectrofluorometric titration of purified protein
Type in all cases: binding

The target in assay [1] is T1, FAST-P68K (Fluorescence-Activating and Absorption-Shifting Tag) (Halorhodospira halophila, UniProt P16113, P68K/C69G/Y94W/T95M/F96I/D97P/Y98T/Q99S/M100R).
T1 construct: gene pyp
T1 sequence (P16113 whole entry P68K/C69G/Y94W/T95M/F96I/D97P/Y98T/Q99S/M100R): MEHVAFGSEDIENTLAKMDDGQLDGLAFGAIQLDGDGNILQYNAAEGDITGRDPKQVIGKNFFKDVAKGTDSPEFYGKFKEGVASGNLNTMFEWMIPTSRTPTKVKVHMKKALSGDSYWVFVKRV

Assay [2] addresses T2, FAST-R52K (Fluorescence-Activating and Absorption-Shifting Tag) (Halorhodospira halophila, UniProt P16113, R52K/C69G/Y94W/T95M/F96I/D97P/Y98T/Q99S/M100R).
T2 construct: gene pyp

In assay [3] the target is T3, FAST-P68T (Fluorescence-Activating and Absorption-Shifting Tag) (Halorhodospira halophila, UniProt P16113, P68T/C69G/Y94W/T95M/F96I/D97P/Y98T/Q99S/M100R).
T3 construct: gene pyp
T3 sequence (P16113 whole entry P68T/C69G/Y94W/T95M/F96I/D97P/Y98T/Q99S/M100R): as the sequence (P16113 whole entry P68K/C69G/Y94W/T95M/F96I/D97P/Y98T/Q99S/M100R) above, with K68T counted along it

Assay [4] concerns the target T4, FAST-F62L (Fluorescence-Activating and Absorption-Shifting Tag) (Halorhodospira halophila, UniProt P16113, F62L/C69G/Y94W/T95M/F96I/D97P/Y98T/Q99S/M100R).
T4 construct: gene pyp

T2 sequence (P16113 whole entry R52K/C69G/Y94W/T95M/F96I/D97P/Y98T/Q99S/M100R): as the sequence (P16113 whole entry P68K/C69G/Y94W/T95M/F96I/D97P/Y98T/Q99S/M100R) above, with R52K, K68P counted along it
T4 sequence (P16113 whole entry F62L/C69G/Y94W/T95M/F96I/D97P/Y98T/Q99S/M100R): as the sequence (P16113 whole entry P68K/C69G/Y94W/T95M/F96I/D97P/Y98T/Q99S/M100R) above, with F62L, K68P counted along it

`COc1cc(/C=C2\N=C(C(F)(F)F)N(C)C2=O)c(OC)cc1O` [25DOM-HBI-2T, (Z)-5-(4-hydroxy-2,5-dimethoxybenzylidene)-3-methyl-2-(trifluoromethyl)-3,5-dihydro-4H-imidazol-4-one]: the results for the Kd in assay [1] and in assay [2] were 340 nM and 440 nM, respectively.
On to `Cc1cc(/C=C2\SC(=S)NC2=O)c(C)cc1O` [HBR-2,5-DM], for which the equilibrium dissociation constant (Kd) in assay [3] worked out at 90 nM; in assay [1] it was 84 nM; in assay [2], 46 nM.
For the molecule `COc1cc(/C=C2\SC(=S)NC2=O)c(OC)cc1O` [HBR-DOM2, (Z)-5-(4-hydroxy-2,5-dimethoxybenzylidene)-2-thioxothiazolidin-4-ones], the Kd in assay [4] is 36 nM; in assay [1], 30 nM; in assay [2], 35 nM.
